Measurements reported in patent US20260364184A1, “COMPOUND BASED ON OXOISOINDOLINYL-SUBSTITUTED TETRAHYDROPYRIMIDINE-DIONE AND USE THEREOF” (GLUETACS THERAPEUTICS (SHANGHAI) CO., LTD., priority 2023, published 2026).

Legend:
[1] = test system: Human myeloid monocytic leukemia cell line (MV-4-11); experiment: Inhibition of MV-4-11 cell proliferation (CellTiter luminescent viability); assay type: cell-based; details: for inhibition at 0.01 µM / inhibition at 0.5 µM: Homo sapiens, MV4-11, Table IE3, CDK4/6 inhibitor-based, 96 hours; for inhibition at 0.01 µM: MV-4-11, 10 nM, read-out: Inhibition Rate at 10 nM (%); for inhibition at 0.5 µM: MV-4-11, 500 nM, read-out: Inhibition Rate at 500 nM (%); for IC50: Table IE1, CDK4/6 inhibitor-based, MV-4-11, 96 hours, read-out: Inhibitory activity (IC50, nM) on tumor cell proliferation, MV-4-11
In short: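 Cells are seeded in 96-well plates, cultured at 37 °C, 5% CO2, and treated next day with 5-fold serial compound dilutions (stock series from 2000 μM; 0.5 μL into 100 μL medium). Viability is read by CellTiter-Meiluncell luminescence after the set exposure, and IC50 is taken from growth-inhibition curves.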

[2] = test system: Human lung cancer cell line (H292); experiment: Inhibition of H292 cell proliferation (CellTiter luminescent viability); assay type: cell-based; details: NCI-H292, Table IE2, CDK4/6 inhibitor-based, 96 hours; for inhibition at 0.01 µM: H292, 10 nM, read-out: Inhibition Rate at 10 nM (%); for inhibition at 0.5 µM: H292, 500 nM, read-out: Inhibition Rate at 500 nM (%)
[3] = target: T1, CDK6 (Homo sapiens, UniProt Q00534+Q96SW2); experiment: Western blot degradation of CDK6; assay type: cell-based; details: MDA-MB-231 Cell; 24 hours
T1 construct: expression of target proteins in cells; endogenous in cells
T1 sequence (Q00534 whole entry): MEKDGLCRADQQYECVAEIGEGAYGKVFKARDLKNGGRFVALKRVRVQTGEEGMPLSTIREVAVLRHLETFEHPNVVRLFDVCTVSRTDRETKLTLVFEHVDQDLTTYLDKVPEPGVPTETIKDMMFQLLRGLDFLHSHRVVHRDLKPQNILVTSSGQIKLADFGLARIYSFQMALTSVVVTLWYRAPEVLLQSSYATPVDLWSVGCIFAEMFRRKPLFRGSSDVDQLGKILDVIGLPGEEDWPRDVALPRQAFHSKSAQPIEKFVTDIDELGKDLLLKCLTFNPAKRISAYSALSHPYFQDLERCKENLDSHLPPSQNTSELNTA
T1 sequence (Q96SW2 whole entry): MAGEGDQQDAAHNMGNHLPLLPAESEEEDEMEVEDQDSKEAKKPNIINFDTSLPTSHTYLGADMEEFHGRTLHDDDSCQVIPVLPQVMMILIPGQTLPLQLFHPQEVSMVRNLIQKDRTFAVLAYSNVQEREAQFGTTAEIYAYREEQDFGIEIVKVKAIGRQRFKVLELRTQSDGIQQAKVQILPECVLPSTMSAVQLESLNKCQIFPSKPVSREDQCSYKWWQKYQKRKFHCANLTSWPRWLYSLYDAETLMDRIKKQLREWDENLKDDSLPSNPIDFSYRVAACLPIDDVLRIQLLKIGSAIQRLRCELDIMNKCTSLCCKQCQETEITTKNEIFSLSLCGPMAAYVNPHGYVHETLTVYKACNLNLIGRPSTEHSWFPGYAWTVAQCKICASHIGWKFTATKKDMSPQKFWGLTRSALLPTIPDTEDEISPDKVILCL
T1 sequence (Q16531 whole entry partner): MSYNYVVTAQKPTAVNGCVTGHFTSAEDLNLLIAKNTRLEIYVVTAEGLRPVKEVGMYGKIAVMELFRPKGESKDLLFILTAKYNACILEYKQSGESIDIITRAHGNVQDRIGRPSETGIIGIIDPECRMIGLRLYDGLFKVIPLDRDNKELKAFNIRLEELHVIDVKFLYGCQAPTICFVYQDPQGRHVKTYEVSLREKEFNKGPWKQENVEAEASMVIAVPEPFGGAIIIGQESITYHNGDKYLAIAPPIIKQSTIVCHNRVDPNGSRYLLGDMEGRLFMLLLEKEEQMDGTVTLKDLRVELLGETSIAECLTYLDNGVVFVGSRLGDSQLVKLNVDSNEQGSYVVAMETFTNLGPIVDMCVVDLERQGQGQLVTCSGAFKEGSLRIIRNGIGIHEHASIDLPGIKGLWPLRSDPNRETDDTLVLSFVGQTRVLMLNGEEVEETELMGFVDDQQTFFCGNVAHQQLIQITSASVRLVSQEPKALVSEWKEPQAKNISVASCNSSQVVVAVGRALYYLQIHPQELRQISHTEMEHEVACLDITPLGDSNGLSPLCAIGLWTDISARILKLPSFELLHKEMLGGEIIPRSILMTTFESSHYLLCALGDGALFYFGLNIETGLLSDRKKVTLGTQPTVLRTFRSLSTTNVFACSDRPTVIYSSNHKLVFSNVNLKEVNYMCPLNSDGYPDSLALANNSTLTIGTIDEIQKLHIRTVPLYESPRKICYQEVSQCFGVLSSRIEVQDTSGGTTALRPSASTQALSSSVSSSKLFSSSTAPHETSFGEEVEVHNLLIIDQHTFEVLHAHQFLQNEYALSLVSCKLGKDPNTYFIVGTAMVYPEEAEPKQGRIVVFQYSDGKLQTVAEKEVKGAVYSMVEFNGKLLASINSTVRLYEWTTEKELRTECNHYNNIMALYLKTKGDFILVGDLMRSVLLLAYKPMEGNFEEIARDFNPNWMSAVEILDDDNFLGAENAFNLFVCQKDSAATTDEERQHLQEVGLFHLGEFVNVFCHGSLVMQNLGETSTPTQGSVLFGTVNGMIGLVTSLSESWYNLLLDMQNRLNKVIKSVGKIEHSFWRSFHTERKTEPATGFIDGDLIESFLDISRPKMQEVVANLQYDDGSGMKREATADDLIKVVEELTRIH
Protocol: (§1) Conventional Western blot assay was performed to evaluate the effects of the compounds of the present disclosure on the expression of target proteins in cells.
(§2) (1) Cell Seeding and Protein Harvesting: The selected cells were processed according to the cell seeding procedure and protein harvesting procedure in Table II-2.
(§3) (2) To the collected supernatant, 5×SDS sample loading buffer was added, followed by denaturation at 95 °C for 5 minutes. The denatured samples were then separated by SDS-PAGE electrophoresis on a polyacrylamide gel. Proteins were transferred to a nitrocellulose membrane (0.45 μm NC membrane), blocked with blocking buffer at room temperature for 1 hour, and subjected to antibody incubation and development procedures according to the antibody manufacturer's instructions (Cell Signaling Technology).
(§4) Half-Maximal Degradation Concentration value (the drug concentration required for degrading proteins by 50%, abbreviated as DC50) reads method: comparing the grayscale values of Western blot bands from drug-treated samples with those from blank DMSO-treated controls, and identifying the drug concentration range at which the grayscale value is half that of the DMSO-treated control bands.
(§5) DC50 values can be calculated using ImageJ software to measure grayscale values of Western blot bands from drug-treated samples. The concentration-response curve is fitted to estimate the drug concentration corresponding to half the grayscale value.
(§6) Target protein remaining (%) refers to the percentage of target protein remaining in cells after treatment with protein degrader compounds.
(§7) Calculation method for target protein remaining (%): Use ImageJ software to measure grayscale values of Western blot bands from drug (protein degrader)-treated samples. The grayscale value of drug-treated bands is divided by that of internal control protein bands, and the resulting quotient is normalized to obtain the relative percentage of remaining target protein after protein degrader treatment.
(§8) Target protein degradation rate (%)=1−target protein remaining (%).

[4] = target: T2, CDK4 (Homo sapiens, UniProt P11802+Q96SW2); experiment: Western blot degradation of CDK4; assay type: cell-based; details: MDA-MB-231 Cell; 24 hours
T2 construct: expression of target proteins in cells; endogenous in cells
T2 sequence (P11802 whole entry): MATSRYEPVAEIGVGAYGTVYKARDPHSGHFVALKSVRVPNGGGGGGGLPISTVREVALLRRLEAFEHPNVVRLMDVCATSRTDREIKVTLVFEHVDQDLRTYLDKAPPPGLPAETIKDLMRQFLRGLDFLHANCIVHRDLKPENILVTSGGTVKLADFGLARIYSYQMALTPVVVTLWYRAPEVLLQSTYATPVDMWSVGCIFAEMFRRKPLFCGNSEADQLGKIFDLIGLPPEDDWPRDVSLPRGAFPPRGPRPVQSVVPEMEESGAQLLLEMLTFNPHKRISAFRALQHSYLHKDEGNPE
T2 sequence (Q96SW2 whole entry): as the sequence (Q96SW2 whole entry) above
T2 sequence (Q16531 whole entry partner): as the sequence (Q16531 whole entry partner) above
Protocol: as §1, §2, §3, §4, §5, §6, §7, §8

[5] = target: T3, human Cereblon WT GST-tagged protein (CRBN) (Homo sapiens, UniProt Q96SW2); experiment: CRBN binding by HTRF (Cereblon binding kit)
T3 construct: purchased CISBIO 64BDCRBNPEH
T3 sequence (Q96SW2 whole entry): as the sequence (Q96SW2 whole entry) above
In short: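 GST-tagged human Cereblon WT was incubated 3 h at room temperature with compound, thalidomide-Re tracer and Eu anti-GST antibody. Final compound concentrations were 10 to 0.00064 µM (7 points) or 2 and 0.5 µM. Inhibition rate was calculated from HTRF 665/620 nm ratios versus solvent and blank controls.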

[6] = test system: Human large cell immunoblastic lymphoma cell line SR; experiment: Inhibition of SR cell proliferation (CellTiter luminescent viability); assay type: cell-based; details: Table IE1, CDK4/6 inhibitor-based, 96 hours, read-out: Inhibitory activity (IC50, nM) on tumor cell proliferation, SR
Protocol: The tumor cells used herein were cultured in a cell culture medium listed in table 3 at 37 °C in an incubator with 5% CO2. Prior to experimentation, all cell lines used were correctly identified by STR profiling, and tested negative for mycoplasma contamination using a mycoplasma detection kit through routine screenings.
The IC50 values of the compounds of the present disclosure (including the compounds in Table 1, Table 2, and Examples 1-468) were determined using the CellTiter-Meiluncell Luminescent Cell Viability Assay Kit from Dalian Meilun Biotech Co., Ltd. The detailed procedure is as follows: Tumor cells were seeded in 96-well cell culture plates at the densities specified in Table 4. On the following day, the test compounds of the present disclosure were subjected to serial dilution. The dilution can be performed according to one of the following two methods: • (1) The first dilution method: The test compounds of the present disclosure (including the compounds in Table 1, Table 2, and Examples 1-468) were subjected to 5-fold serial dilutions starting from a highest concentration of 2000 μM, resulting in a total of 9 concentrations from high to low (2000, 400, 80, 16, 3.2, 0.64, 0.128, 0.0256, 0.00512 μM). Subsequently, 0.5 μL of the test compound dilution was transferred into the 96-well plate containing the cells, with each well containing 100 μL of cell culture medium. […] Into the 96-well plate, the diluted test compounds and corresponding detection reagents were added, resulting in final test compound concentrations of 500 nM and 10 nM, respectively. The experimental procedure is described below using the diluted 2 μM test compound as an example.
0.5 μL of the aforementioned diluted compound of the present disclosure (including the compounds in Table 1, Table 2, and Examples 1-468) was added to the seeded cells in 100 μL of medium, yielding a final test compound concentration of 10 nM. After the cells were treated with the compounds of the present disclosure for a specified period, the cell viability assay reagent was added to the culture medium according to the kit's instructions to determine cell viability. […] All controls were treated using the same procedure as the compounds of the present disclosure. The growth inhibition curves for the compounds of the present disclosure were plotted using Prism GraphPad software, and the IC50 values were calculated therefrom.

[7] = test system: Human acute lymphocytic leukemia T lymphocytes cell line (CCRF-CEM); experiment: Inhibition of CCRF-CEM cell proliferation (CellTiter luminescent viability); assay type: cell-based; details: Table IE1, CDK4/6 inhibitor-based, 96 hours, read-out: Inhibitory activity (IC50, nM) on tumor cell proliferation, CCRF-CEM
[8] = test system: Human Acute T Lymphoblastic Leukemia Cells (Molt-4); experiment: Inhibition of Molt-4 cell proliferation (CellTiter luminescent viability); assay type: cell-based; details: Table IE1, CDK4/6 inhibitor-based; Molt-4, 96 hours; read-out: Inhibitory activity (IC50, nM) on tumor cell proliferation, Molt-4

| Structure (SMILES) | inhibition at 0.01 µM [1] [%] | inhibition at 0.5 µM [1] [%] | inhibition at 0.01 µM [2] [%] | inhibition at 0.5 µM [2] [%] | Degradation of substrate protein CDK6 (substrate protein remaining %) [3] | Degradation of substrate protein CDK4 (substrate protein remaining %) [4] | IC50 [1] [nM] | Inhibition Rate at 0.5 μM (%) ([5]; 0.5 μM) | Inhibition Rate at 2 μM (%) ([5]; 2 μM) | IC50 [6] [nM] | IC50 [7] [nM] | IC50 [8] [nM] |
| --- | --- | --- | --- | --- | --- | --- | --- | --- | --- | --- | --- | --- |
| CN(C)C(=O)c1cc2cnc(Nc3ccc(N4CCC(CN5C6CCC5CN(c5ccc7c(c5)C(=O)N(N5CCC(=O)NC5=O)C7=O)C6)CC4)cn3)nc2n1C1CCCC1 [GT-05812, 7-cyclopentyl-2-((5-(4-((3-(2-(2,4-dioxotetrahydropyrimidin-1(2H)-yl)-1,3-dioxoisoindolin-5-yl)-3,8-diazabicyclo[3.2.1]octan-8-yl)methyl)piperidin-1-yl)pyridin-2-yl)amino)-N,N-dimethyl-7H-pyrrolo[2,3-d]pyrimidine-6-carboxamide] | 15 to 20 | 40 to 60 | 35 to 40 | 30 to 35 | A (0%≤substrate protein remaining %≤80%) | B (80%<substrate protein remaining %≤100%) |  |  |  |  |  |  |
| CN(C)C(=O)c1cc2cnc(Nc3ccc(N4CCC(N(C)CC5CCN(c6ccc7c(c6)C(=O)N(N6CCC(=O)NC6=O)C7=O)CC5)CC4)cn3)nc2n1C1CCCC1 [GT-06489, 7-cyclopentyl-2-((5-(4-(((1-(2-(2,4-dioxotetrahydropyrimidin-1(2H)-yl)-1,3-dioxoisoindolin-5-yl)piperidin-4-yl)methyl)(methyl)amino)piperidin-1-yl)pyridin-2-yl)amino)-N,N-dimethyl-7H-pyrrolo[2,3-d]pyrimidine-6-carboxamide] | 25 to 30 | 40 to 60 | 30 to 35 | 40 to 60 | A (0%≤substrate protein remaining %≤80%) | A (0%≤substrate protein remaining %≤80%) |  |  |  |  |  |  |
| CC(=O)c1c(C)c2cnc(Nc3ccc(N4CCN(Cc5ccc6c(c5)CN(N5CCC(=O)NC5=O)C6=O)CC4)cn3)nc2n(C2CCCC2)c1=O [GT-06573, 1-(5-((4-(6-((6-acetyl-8-cyclopentyl-5-methyl-7-oxo-7,8-dihydropyrido[2,3-d]pyrimidin-2-yl)amino)pyridin-3-yl)piperazin-1-yl)methyl)-1-oxoisoindolin-2-yl)dihydropyrimidine-2,4 (1H,3H)-dione] | 40 to 60 | 60 to 80 | 30 to 35 | 40 to 60 | A (0%≤substrate protein remaining %≤80%) | B (80%<substrate protein remaining %≤100%) |  |  |  |  |  |  |
| Cc1nc2c(F)cc(-c3nc(Nc4ccc(CN5CCN(CC6CCN(c7cccc8c7C(=O)N(N7CCC(=O)NC7=O)C8=O)CC6)CC5)cn4)ncc3F)cc2n1C(C)C [GT-06663, 2-(2,4-dioxotetrahydropyrimidin-1(2H)-yl)-4-(4-((4-((6-((5-fluoro-4-(4-fluoro-1-isopropyl-2-methyl-1H-benzo[d]imidazol-6-yl)pyrimidin-2-yl)amino)pyridin-3-yl)methyl)piperazin-1-yl)methyl)piperidin-1-yl)isoindoline-1,3-dione] |  |  |  |  | A (0%≤substrate protein remaining %≤80%) | B (80%<substrate protein remaining %≤100%) | 10 to 50 | a2 (20% < a2 ≤ 30%) | a5 (53% < a5 ≤ 60%) | 400 to 800 |  |  |
| Cc1nc2c(F)cc(-c3nc(Nc4ccc(N5CCC(N(C)CC6CCN(c7ccc8c(c7)C(=O)N(N7CCC(=O)NC7=O)C8=O)CC6)CC5)cn4)ncc3F)cc2n1C(C)C [GT-06733, 2-(2,4-dioxotetrahydropyrimidin-1(2H)-yl)-5-(4-(((1-(6-((5-fluoro-4-(4-fluoro-1-isopropyl-2-methyl-1H-benzo[d]imidazol-6-yl)pyrimidin-2-yl)amino)pyridin-3-yl)piperidin-4-yl)(methyl)amino)methyl)piperidin-1-yl)isoindoline-1,3-dione] |  |  |  |  | A (0%≤substrate protein remaining %≤80%) | A (0%≤substrate protein remaining %≤80%) | 10 to 50 |  |  | 100 to 300 | 100 to 300 | 100 to 300 |
| Cc1nc2c(F)cc(-c3nc(Nc4ccc(N5CCC(N(C)CC6CCN(c7cccc8c7C(=O)N(N7CCC(=O)NC7=O)C8=O)CC6)CC5)cn4)ncc3F)cc2n1C(C)C [GT-06734, 2-(2,4-dioxotetrahydropyrimidin-1(2H)-yl)-4-(4-(((1-(6-((5-fluoro-4-(4-fluoro-1-isopropyl-2-methyl-1H-benzo[d]imidazol-6-yl)pyrimidin-2-yl)amino)pyridin-3-yl)piperidin-4-yl)(methyl)amino)methyl)piperidin-1-yl)isoindoline-1,3-dione] |  |  |  |  | A (0%≤substrate protein remaining %≤80%) | A (0%≤substrate protein remaining %≤80%) | 50 to 100 |  |  | 100 to 300 | 400 to 800 | 400 to 800 |
| Cc1nc2c(F)cc(-c3nc(Nc4ccc(N5CCC(N6CCN(Cc7ccc8c(c7)C(=O)N(N7CCC(=O)NC7=O)C8=O)CC6)CC5)cn4)ncc3F)cc2n1C(C)C [GT-06737, 2-(2,4-dioxotetrahydropyrimidin-1(2H)-yl)-5-((4-(1-(6-((5-fluoro-4-(4-fluoro-1-isopropyl-2-methyl-1H-benzo[d]imidazol-6-yl)pyrimidin-2-yl)amino)pyridin-3-yl)piperidin-4-yl)piperazin-1-yl)methyl)isoindoline-1,3-dione] |  |  |  |  | A (0%≤substrate protein remaining %≤80%) | B (80%<substrate protein remaining %≤100%) | 300 to 400 |  |  | 100 to 300 |  |  |
